Target: T1, MHlip (uncultured bacterium, UniProt D3YKV3)
T1 construct: full length, 262 residues, 28,075 Da (theoretical), C-terminal 6xHis tag (pET22b NdeI/XhoI), E. coli BL21(DE3), Ni-NTA; N-terminus MPFAH
Test: spectrophotometric p-nitrophenol release at […] nm, initial rates, nonlinear Michaelis-Menten fit
Type: biochemical
Details: 20 mM Tris-HCl pH 8, 30 °C, pNPA 0-10 mM

T1 sequence (D3YKV3 1-262 limits assumed): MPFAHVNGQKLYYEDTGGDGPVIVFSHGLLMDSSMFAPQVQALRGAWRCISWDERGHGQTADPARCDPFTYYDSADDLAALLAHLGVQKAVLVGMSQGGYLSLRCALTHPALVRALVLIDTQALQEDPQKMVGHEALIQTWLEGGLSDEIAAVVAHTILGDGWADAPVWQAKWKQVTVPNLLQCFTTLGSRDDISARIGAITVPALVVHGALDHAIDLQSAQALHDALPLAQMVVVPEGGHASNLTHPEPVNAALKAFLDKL

Km: 1.2~0.1 mM
Structure (SMILES): CC(=O)Oc1ccc([N+](=O)[O-])cc1 [pNPA]

— article PMC4009859, “Novel Cold-Adapted Esterase MHlip from an Antarctic Soil Metagenome” (Biology, 2013)
